Data set [1] addresses T1, Serine/threonine-protein kinase TNNI3K (Homo sapiens, UniProt Q59H18).
T1 sequence (Q59H18 whole entry): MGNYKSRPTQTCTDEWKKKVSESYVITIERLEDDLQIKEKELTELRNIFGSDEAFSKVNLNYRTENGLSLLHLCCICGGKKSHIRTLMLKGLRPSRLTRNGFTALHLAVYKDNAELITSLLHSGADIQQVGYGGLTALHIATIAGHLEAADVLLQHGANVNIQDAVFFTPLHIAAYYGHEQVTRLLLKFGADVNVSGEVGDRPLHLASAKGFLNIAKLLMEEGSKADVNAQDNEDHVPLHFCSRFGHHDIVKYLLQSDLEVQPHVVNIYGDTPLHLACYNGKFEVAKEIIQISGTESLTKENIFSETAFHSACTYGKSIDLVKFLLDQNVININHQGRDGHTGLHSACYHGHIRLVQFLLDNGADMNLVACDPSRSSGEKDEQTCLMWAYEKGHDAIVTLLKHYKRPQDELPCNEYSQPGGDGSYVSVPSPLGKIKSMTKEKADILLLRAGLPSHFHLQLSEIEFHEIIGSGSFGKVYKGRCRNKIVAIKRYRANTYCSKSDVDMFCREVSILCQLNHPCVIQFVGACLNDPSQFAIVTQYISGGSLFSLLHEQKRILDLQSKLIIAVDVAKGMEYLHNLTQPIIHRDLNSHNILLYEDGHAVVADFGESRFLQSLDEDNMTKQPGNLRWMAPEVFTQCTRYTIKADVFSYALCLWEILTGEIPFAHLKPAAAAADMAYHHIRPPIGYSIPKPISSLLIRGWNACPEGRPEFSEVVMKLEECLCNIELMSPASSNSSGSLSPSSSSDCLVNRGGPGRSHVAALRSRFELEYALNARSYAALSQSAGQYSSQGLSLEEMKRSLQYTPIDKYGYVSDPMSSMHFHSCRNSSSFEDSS
The data set is described as follows: Displacement of 5-({[2-({[3-({4-[(5-hydroxy-2-methylphenyl)amino]-2-pyrimidinyl}amino)phenyl]carbonyl}amino)-ethyl]amino}carbonyl)-2-(6-hydroxy-3-oxo-3H-xanthen-9-yl)benzoic acid from His6-MBP-TEV-full length human TNNI3K expressed in Baculovirus expression system after 60 mins by fluorescence polarization assay. In general terms: Polarisation of emitted light reports the rotation of a fluorescent probe.

In data set [2] the target is Serine/threonine-protein kinase B-raf (Homo sapiens, UniProt P15056, V600E). The data set is described as follows: Inhibition of His6-tagged full length BRAF V600E mutant (2 to 766 residues) (unknown origin) expressed in Baculovirus expression system by BRAMA method.
Sequence of Serine/threonine-protein kinase B-raf (P15056 2-766 V600E limits assumed): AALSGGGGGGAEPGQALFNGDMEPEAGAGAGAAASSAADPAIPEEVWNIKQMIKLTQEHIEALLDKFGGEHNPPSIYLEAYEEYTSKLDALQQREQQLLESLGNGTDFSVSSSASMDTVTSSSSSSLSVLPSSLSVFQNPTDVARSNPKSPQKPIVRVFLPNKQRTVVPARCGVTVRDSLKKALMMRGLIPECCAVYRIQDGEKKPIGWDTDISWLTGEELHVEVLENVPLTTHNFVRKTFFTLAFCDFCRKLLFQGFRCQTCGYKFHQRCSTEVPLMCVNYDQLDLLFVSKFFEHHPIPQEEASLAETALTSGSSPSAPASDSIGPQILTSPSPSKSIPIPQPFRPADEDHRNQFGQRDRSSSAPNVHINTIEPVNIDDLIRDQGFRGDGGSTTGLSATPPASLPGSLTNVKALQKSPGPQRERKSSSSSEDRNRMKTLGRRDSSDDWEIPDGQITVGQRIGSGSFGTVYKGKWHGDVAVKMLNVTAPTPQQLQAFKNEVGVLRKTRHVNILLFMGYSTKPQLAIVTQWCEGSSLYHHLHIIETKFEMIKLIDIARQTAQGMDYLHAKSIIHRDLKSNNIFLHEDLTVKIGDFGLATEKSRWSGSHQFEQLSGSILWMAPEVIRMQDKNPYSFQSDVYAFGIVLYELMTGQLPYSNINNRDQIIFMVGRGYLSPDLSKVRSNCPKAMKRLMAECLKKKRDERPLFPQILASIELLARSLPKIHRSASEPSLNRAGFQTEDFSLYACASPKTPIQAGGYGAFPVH
A short description of data set [3]: Plasma clearance in Sprague-Dawley rat at 1 mg/kg, iv by LC/MS/MS analysis. It is filed as ADME, organism-based.
A short description of data set [4]: Oral bioavailability in Sprague-Dawley rat by LC/MS/MS analysis. It is filed as ADME, organism-based. The settings on record: in vivo.
For data set [5], the system named is Rattus norvegicus. The data set is described as follows: Dose normalized AUC in po dosed Sprague-Dawley rat by LC/MS/MS analysis. It counts as ADME, organism-based. The settings on record: in vivo.
Data set [6] addresses T1, Serine/threonine-protein kinase TNNI3K. Briefly: Inhibition of human myc-tagged TNNI3K autophosphorylation overexpressed in HEKMSRII cells preincubated for 30 mins followed by pervanadate solution addition measured after 20 mins by DELFIA. It is filed as cell-based.

Molecules are shown by their SMILES. Bounds are passed on as bounds.

For the compound `CNS(=O)(=O)c1cccc(Nc2ncnc3[nH]c(C(=O)O)cc23)c1`, the 50% inhibitory concentration (IC50) (commonly the concentration needed to halve the response being measured) in data set [1] came out at 0.16 µM; in data set [2] it was 0.04 µM.
In data set [1], `CNS(=O)(=O)c1cccc(Nc2nc(F)nc3[nH]cnc23)c1` yielded an IC50 of 3.2 µM.
The same measure, in the same setting: with `CNS(=O)(=O)c1cccc(Nc2ncnc3c2ncn3C)c1` the figure was above 25 µM; with `CNS(=O)(=O)c1cccc(Nc2nc(N)nc3[nH]cnc23)c1`, 8 µM; with `CNS(=O)(=O)c1cccc(Nc2nc(Cl)nc3[nH]cnc23)c1`, 16 µM.
Take `CNS(=O)(=O)c1cccc(Nc2ncnc3[nH]ncc23)c1`: the concentration for half-maximal inhibition (IC50) in data set [1] was 0.05 µM. For the same compound, the clearance – broadly, the rate of elimination divided by the concentration – in data set [3] is 72 mL/min/kg. Besides, in data set [4], the bioavailability (usually the share of a dose that reaches the circulation, judged against a reference dose that is usually intravenous) worked out at 5%.
`CNS(=O)(=O)c1cccc(Nc2ncnc3c2ccn3C)c1` showed an IC50 in data set [1] above 25 µM.
Compound `CNS(=O)(=O)c1cccc(Nc2ccnc3[nH]ccc23)c1` gave a half-maximal inhibitory concentration (IC50) in data set [1] of 8 µM.
As to `CNS(=O)(=O)c1cccc(Nc2ncnc3c2CC(=O)N3)c1`, the IC50 in data set [1] worked out at 0.4 µM.
On the same count and under the same terms, with `CCNS(=O)(=O)c1cccc(Nc2ncnc3[nH]cnc23)c1` the figure was 2 µM; with `NS(=O)(=O)c1cccc(Nc2ncnc3[nH]cnc23)c1`, 40 µM.
Still for that read-out and setting: with `O=S(=O)(NO)c1cccc(Nc2ncnc3[nH]cnc23)c1` the figure was 20 µM; with `CN(C)S(=O)(=O)c1cccc(Nc2ncnc3[nH]cnc23)c1`, 8 µM.
The same measure, in the same setting: with `CCS(=O)(=O)c1cccc(Nc2ncnc3[nH]cnc23)c1` the figure was 6.3 µM; with `CNS(=O)(=O)c1cc(Nc2ncnc3[nH]cnc23)ccc1C`, 13 µM; with `CNS(=O)(=O)c1ccc(C)c(Nc2ncnc3[nH]cnc23)c1`, 0.5 µM.
In data set [1], `CNS(=O)(=O)c1cccc(N(C)c2ncnc3[nH]ccc23)c1` displayed an IC50 of 5 µM.
The same measure, in the same setting: with `CNS(=O)(=O)c1cccc(Oc2ncnc3[nH]ccc23)c1` the figure was 16 µM; with `CNS(=O)(=O)c1cncc(Nc2ncnc3[nH]ccc23)c1`, 0.25 µM.
Regarding `CNS(=O)(=O)c1cccc(Nc2ncnc3[nH]cc(C)c23)c1`, the 50% inhibitory concentration (IC50) was 0.04 µM in data set [1] and 0.063 µM in data set [2]. The same compound had an AUC/dose in data set [5] of 0.18 kg·h/L.
As for `CNS(=O)(=O)c1cccc(Nc2ncnc3[nH]cc(C(C)C)c23)c1`, the IC50 in data set [1] turned out to be 0.126 µM; in data set [2], 0.079 µM. Moreover, the AUC/dose in data set [5] was 0.06 kg·h/L.
As to `CNS(=O)(=O)c1cccc(Nc2ncnc3[nH]cc(CC(C)C)c23)c1`, the IC50 in data set [1] is 0.126 µM; in data set [2] it was 0.04 µM.
For the compound `CNS(=O)(=O)c1cccc(Nc2ncnc3[nH]cc(F)c23)c1`, the concentration for half-maximal inhibition (IC50) was 0.126 µM in data set [1] and 0.079 µM in data set [2]. Moreover, the AUC/dose in data set [5] is 0.28 kg·h/L.
Regarding `CNS(=O)(=O)c1cccc(Nc2ncnc3[nH]cc(-c4ccccc4)c23)c1`, the results for the half-inhibitory concentration (IC50) in data set [1] and in data set [2] were 0.04 µM and 0.004 µM, respectively. This compound also registered an AUC/dose in data set [5] of 0.05 kg·h/L. In addition, the clearance in data set [3] is 93 mL/min/kg.
In the case of `CNS(=O)(=O)c1cccc(Nc2ncnc3[nH]cc(-c4ccccc4Cl)c23)c1`, the IC50 in data set [1] worked out at 0.04 µM; in data set [2], 0.01 µM.
For `CNS(=O)(=O)c1cccc(Nc2ncnc3[nH]cc(-c4cccc(Cl)c4)c23)c1` the same measures were 0.063 µM and 0.001 µM.
For the compound `CNS(=O)(=O)c1cccc(Nc2ncnc3[nH]cc(-c4ccc(Cl)cc4)c23)c1`, the 50% inhibitory concentration (IC50) in data set [1] turned out to be 0.1 µM; in data set [2], 0.004 µM. Besides, the AUC/dose in data set [5] was 0.2 kg·h/L. Also, the clearance in data set [3] stood at 65 mL/min/kg.
As for `CNS(=O)(=O)c1cccc(Nc2ncnc3[nH]cc(-c4ccc(OC)cc4)c23)c1`, the results for the half-maximal inhibitory concentration (IC50) in data set [1] and in data set [2] were 0.05 µM and 0.004 µM, respectively. The AUC/dose in data set [5] turned out to be 0.06 kg·h/L.
For `CNS(=O)(=O)c1cccc(Nc2ncnc3[nH]cc(-c4ccncc4)c23)c1` the same measures were 0.1 µM, 0.032 µM and 0 kg·h/L.
For `CNS(=O)(=O)c1cccc(Nc2ncnc3[nH]cc(-c4ccc(CN)cc4)c23)c1` the same measures were 0.032 µM, 0.006 µM and 0 kg·h/L.
For `CNS(=O)(=O)c1cccc(Nc2ncnc3[nH]cc(-c4ccc(C(=O)O)cc4)c23)c1` the same measures were 0.1 µM, 0.016 µM and 0 kg·h/L.
Take `CNS(=O)(=O)c1cccc(Nc2ncnc3[nH]c(Br)cc23)c1`: the IC50 in data set [1] amounted to 0.05 µM; in data set [2] it was 0.016 µM. In addition, the AUC/dose in data set [5] was 0.26 kg·h/L.
Consider `CNS(=O)(=O)c1cccc(Nc2ncnc3[nH]c(-c4ccccc4)cc23)c1`, for which the figures for the IC50 in data set [1] and in data set [2] were 0.025 µM and 0.001 µM, respectively. Also, the AUC/dose in data set [5] amounted to 0.01 kg·h/L.
For `CNS(=O)(=O)c1cccc(Nc2ncnc3[nH]c(-c4ccccc4C)cc23)c1`, the half-inhibitory concentration (IC50) was 0.013 µM in data set [1] and 0.006 µM in data set [2].
For the compound `CNS(=O)(=O)c1cccc(Nc2ncnc3[nH]c(-c4cccc(C)c4)cc23)c1`, the results for the concentration for half-maximal inhibition (IC50) in data set [1] and in data set [2] were 0.013 µM and 0.001 µM, respectively. In data set [5], this compound had an AUC/dose of 0.01 kg·h/L.
`CNS(=O)(=O)c1cccc(Nc2ncnc3[nH]c(-c4ccc(C)cc4)cc23)c1`: the results for the IC50 in data set [1] and in data set [2] were 0.013 µM and 0.001 µM, respectively.
`CNS(=O)(=O)c1cccc(Nc2ncnc3[nH]c(-c4cccc(C(F)(F)F)c4)cc23)c1`: the figures for the IC50 in data set [1] and in data set [2] were 0.063 µM and 0.006 µM, respectively. In data set [5], the AUC/dose amounted to 0.14 kg·h/L.
In the case of `CNS(=O)(=O)c1cccc(Nc2ncnc3[nH]c(-c4ccc(O)cc4)cc23)c1`, the values for the half-inhibitory concentration (IC50) in data set [1] and in data set [2] were 0.013 µM and 0.001 µM, respectively.
As for `CNS(=O)(=O)c1cccc(Nc2ncnc3[nH]c(-c4ccncc4)cc23)c1`, the results for the IC50 in data set [1] and in data set [2] were 0.02 µM and 0.001 µM, respectively. For the same compound, the AUC/dose in data set [5] turned out to be 0 kg·h/L.
For `CNS(=O)(=O)c1cccc(Nc2ncnc3[nH]c4ccccc4c23)c1` the same measures were 0.1 µM, 0.04 µM and 0.03 kg·h/L.
`CNS(=O)(=O)c1ccc(C)c(Nc2ncnc3[nH]ccc23)c1` registered an IC50 in data set [1] of 0.63 µM.
For the compound `CNS(=O)(=O)c1ccc(Cl)c(Nc2ncnc3[nH]ccc23)c1`, the IC50 in data set [1] is 0.02 µM; in data set [2] it was 0.032 µM.
For `CNc1ccc(S(=O)(=O)NC)cc1Nc1ncnc2[nH]ccc12` the same measures were 6.3 µM and 1 µM.
As to `CNS(=O)(=O)c1ccc(N2CCOCC2)c(Nc2ncnc3[nH]ccc23)c1`, the concentration for half-maximal inhibition (IC50) in data set [1] was determined as 0.04 µM; in data set [2], 0.008 µM; in data set [6], 0.1 µM. Further, the AUC/dose in data set [5] is 0.15 kg·h/L. This compound also came in with a clearance in data set [3] of 39 mL/min/kg.
Regarding `CNS(=O)(=O)c1ccc(N(C)C)c(Nc2ncnc3[nH]cc(C)c23)c1`, the half-maximal inhibitory concentration (IC50) in data set [1] was below 0.01 µM; in data set [2] it was 0.0005 µM; in data set [6] it was 0.0016 µM.
For the compound `CNS(=O)(=O)c1ccc(N(C)C)c(Nc2ncnc3[nH]cc(Br)c23)c1`, the IC50 is below 0.01 µM in data set [1], 0.0002 µM in data set [2] and 0.0007 µM in data set [6]. Also, the AUC/dose in data set [5] came to 0.04 kg·h/L.
As for `CNS(=O)(=O)c1ccc(N2CCOCC2)c(Nc2ncnc3[nH]cc(C)c23)c1`, the figures for the IC50 in data set [1], in data set [2] and in data set [6] were 0.013 µM, 0.0013 µM and 0.0079 µM, respectively.
As to `CNS(=O)(=O)c1ccc(N2CCOCC2)c(Nc2ncnc3[nH]cc(Br)c23)c1`, the half-maximal inhibitory concentration (IC50) in data set [1] is below 0.01 µM; in data set [2], 0.0005 µM; in data set [6], 0.0063 µM. Also, the AUC/dose in data set [5] is 0.32 kg·h/L.
For `CNS(=O)(=O)c1ccc(N(C)C)c(Nc2ncnc3[nH]c(Br)cc23)c1` the same measures were 0.04 µM, 0.0063 µM, 0.04 µM and 0.14 kg·h/L.
As for `CNS(=O)(=O)c1ccc(N(C)C)c(Nc2ncnc3[nH]c(-c4cccc(C(F)(F)F)c4)cc23)c1`, the IC50 came out at 0.013 µM in data set [1], 0.0006 µM in data set [2] and 0.016 µM in data set [6].
With `CNS(=O)(=O)c1ccc(N2CCOCC2)c(Nc2ncnc3[nH]c(Br)cc23)c1`, the 50% inhibitory concentration (IC50) in data set [1] came to 0.126 µM; in data set [2], 0.008 µM; in data set [6], 0.398 µM. Further, the AUC/dose in data set [5] was determined as 0.09 kg·h/L.
`CNS(=O)(=O)c1ccc(N2CCOCC2)c(Nc2ncnc3[nH]c(-c4cccc(C(F)(F)F)c4)cc23)c1`: the IC50 came to 0.016 µM in data set [1], 0.0013 µM in data set [2] and 0.01 µM in data set [6].

Source of the values: ChEMBL document CHEMBL3611990, “Identification of Purines and 7-Deazapurines as Potent and Selective Type I Inhibitors of Troponin I-Interacting Kinase (TNNI3K)” (J Med Chem, 2015).
